Our source for the Solubility and solubility values is patent publication US9593149B2, “Amylin and calcitonin receptor agonist” (Novo Nordisk A/S, priority 2014, dated 2017).

In brackets after ≈: the same amount, converted by molar mass. Numbered stars: 1 amine (or outer) side, 2 acyl side, 3 side chain; on linkers, the order of the positions; unused ones are H or OH. Peptide text beside a SMILES is read from it. * marks the point of attachment. C20 diacid = O=C(O)CCCCCCCCCCCCCCCCCCC(=O)*; C18 diacid = O=C(O)CCCCCCCCCCCCCCCCC(=O)*; γGlu = O=C(O)[C@H](CCC(=O)[*:2])N[*:1]

The data set in a line: Assay (IV) determination of solubility. Format: physicochemical. As to the method:
Assay (IV)—Determination of Solubility
The mimylin peptide was dissolved in water at ˜500 nmol/ml and mixed 1:1 with a series of buffers (100 mM glycylglycine pH 3.0, 100 mM glycylglycine pH 4.0, 100 mM glycylglycine pH 5.0, 100 mM bistrispropane pH 6.0, 100 mM bistrispropane pH 6.5, 100 mM bistrispropane pH 7.0, 100 mM bistrispropane pH 7.5, 100 mM bistrispropane pH 8.0).

Take `CC(C)C[C@H](NC(=O)[C@H](C)NC(=O)[C@H](C)NC(=O)[C@@H](NC(=O)[C@H](CO)NC(=O)[C@H](CC(C)C)NC(=O)[C@H](CCC(=O)O)NC(=O)[C@H](CO)NC(=O)[C@H](C)NC(=O)CC[C@H](NC(=O)CCCCCCCCCCCCCCCCCCC(=O)O)C(=O)O)[C@@H](C)O)C(=O)NCC(=O)N[C@@H](CCCNC(=N)N)C(=O)N[C@@H](CC(C)C)C(=O)N[C@@H](CO)C(=O)N[C@@H](C)C(=O)N[C@@H](CCC(=O)O)C(=O)N[C@@H](CC(C)C)C(=O)N[C@@H](Cc1cnc[nH]1)C(=O)N[C@@H](CCC(=O)O)C(=O)N[C@@H](CC(C)C)C(=O)N[C@@H](CO)C(=O)N[C@H](C(=O)N[C@@H](Cc1ccc(O)cc1)C(=O)N1CCC[C@H]1C(=O)N[C@@H](CCCNC(=N)N)C(=O)N[C@H](C(=O)N[C@@H](CCC(=O)O)C(=O)N[C@H](C(=O)NCC(=O)N[C@@H](CO)C(=O)NCC(=O)N[C@@H](CO)C(=O)N1CCC[C@H]1C(N)=O)[C@@H](C)O)[C@@H](C)O)[C@@H](C)O` [compound 82, [N-terminal(C20 diacid-gGlu), des1, 21S, 23Y, 30S, 31G]mimylin] ({C20 diacid-γGlu}-ASELSTAALGRLSAELHELSTYPRTETGSGSP-NH2): the Solubility result (pH 3.0) is on record as “≧200 μM”; the Solubility result (pH 4.0) is recorded as “≧200 μM”; the Solubility entry (pH 6.0) is “≧200 μM”; the Solubility result (pH 6.5) is on record as “≧200 μM”; the Solubility entry (pH 7.0) is recorded as “≧200 μM”; the Solubility entry (pH 7.5) is “≧200 μM”. Moreover, the Solubility result (pH 8.0) was “≧200 μM”. The solubility at 18 h (pH 5.0) is reported as 1 µM (≈ 3.74 µg/mL).
In the case of `CC(C)C[C@H](NC(=O)[C@H](C)NC(=O)[C@H](C)NC(=O)[C@@H](NC(=O)[C@H](CO)NC(=O)[C@H](CC(C)C)NC(=O)[C@H](CCC(=O)O)NC(=O)[C@H](CO)NC(=O)[C@H](C)NC(=O)CC[C@H](NC(=O)CCCCCCCCCCCCCCCCCCC(=O)O)C(=O)O)[C@@H](C)O)C(=O)NCC(=O)N[C@@H](CCCNC(=N)N)C(=O)N[C@@H](CC(C)C)C(=O)N[C@@H](CO)C(=O)N[C@@H](C)C(=O)N[C@@H](CCC(=O)O)C(=O)N[C@@H](CC(C)C)C(=O)N[C@@H](Cc1cnc[nH]1)C(=O)N[C@@H](CCC(=O)O)C(=O)N[C@@H](CC(C)C)C(=O)N[C@@H](C)C(=O)N[C@H](C(=O)N[C@@H](CC(C)C)C(=O)N1CCC[C@H]1C(=O)N[C@@H](CCCNC(=N)N)C(=O)N[C@H](C(=O)N[C@@H](CCC(=O)O)C(=O)N[C@H](C(=O)NCC(=O)N[C@H](C(=O)NCC(=O)N[C@H](C(=O)N1CCC[C@H]1C(N)=O)[C@@H](C)O)[C@@H](C)O)[C@@H](C)O)[C@@H](C)O)[C@@H](C)O` [compound 74, [N-terminal(C20 diacid-gGlu), des1, 30T, 31G, 32T]mimylin] ({C20 diacid-γGlu}-ASELSTAALGRLSAELHELATLPRTETGTGTP-NH2), the Solubility entry by setting is: (pH 3.0) “≧200 μM”; (pH 4.0) “≧200 μM”; (pH 5.0) “≧200 μM”; (pH 6.0) “≧200 μM”; (pH 6.5) “≧200 μM”; (pH 7.0) “≧200 μM”. Moreover, the Solubility entry (pH 7.5) is reported as “≧200 μM” and the Solubility result (pH 8.0) is recorded as “≧200 μM”.
Take `CC(C)C[C@H](NC(=O)[C@H](C)NC(=O)[C@H](C)NC(=O)[C@@H](NC(=O)[C@H](CO)NC(=O)[C@H](CC(C)C)NC(=O)[C@H](CCC(=O)O)NC(=O)[C@H](CO)NC(=O)[C@H](C)NC(=O)CC[C@H](NC(=O)CCCCCCCCCCCCCCCCCCC(=O)O)C(=O)O)[C@@H](C)O)C(=O)NCC(=O)N[C@@H](CCCNC(=N)N)C(=O)N[C@@H](CC(C)C)C(=O)N[C@@H](CO)C(=O)N[C@@H](C)C(=O)N[C@@H](CCC(=O)O)C(=O)N[C@@H](CC(C)C)C(=O)N[C@@H](Cc1cnc[nH]1)C(=O)N[C@@H](CCC(=O)O)C(=O)N[C@@H](CC(C)C)C(=O)N[C@@H](C)C(=O)N[C@H](C(=O)N[C@@H](CC(C)C)C(=O)N1CCC[C@H]1C(=O)N[C@@H](CCCNC(=N)N)C(=O)N[C@H](C(=O)N[C@@H](CCC(=O)O)C(=O)N[C@H](C(=O)NCC(=O)N[C@@H](CO)C(=O)NCC(=O)N[C@@H](CO)C(=O)N[C@@H](Cc1ccccc1)C(N)=O)[C@@H](C)O)[C@@H](C)O)[C@@H](C)O` [compound 61, [N-terminal(C20 diacid-gGlu), des1, 30S, 31G, 33F]mimylin] ({C20 diacid-γGlu}-ASELSTAALGRLSAELHELATLPRTETGSGSF-NH2): the Solubility result was “≧200 μM” (pH 3.0); “≧200 μM” (pH 4.0); “≧200 μM” (pH 6.0); “≧200 μM” (pH 6.5); “≧200 μM” (pH 7.0); “≧200 μM” (pH 7.5). The Solubility entry (pH 8.0) was “≧200 μM”. Under “pH 5.0”, the solubility at 18 h amounted to 101 µM (≈ 376 µg/mL).
As for `CC(C)C[C@H](NC(=O)[C@H](C)NC(=O)[C@H](C)NC(=O)[C@@H](NC(=O)[C@H](CO)NC(=O)[C@H](CC(C)C)NC(=O)[C@H](CCC(=O)O)NC(=O)[C@H](CO)NC(=O)[C@H](C)NC(=O)CC[C@H](NC(=O)CCCCCCCCCCCCCCCCCCC(=O)O)C(=O)O)[C@@H](C)O)C(=O)NCC(=O)N[C@@H](CCCNC(=N)N)C(=O)N[C@@H](CC(C)C)C(=O)N[C@@H](CO)C(=O)N[C@@H](C)C(=O)N[C@@H](CCC(=O)O)C(=O)N[C@@H](CC(C)C)C(=O)N[C@@H](Cc1cnc[nH]1)C(=O)N[C@@H](CCC(=O)O)C(=O)N[C@@H](CC(C)C)C(=O)N[C@@H](C)C(=O)N[C@H](C(=O)N[C@@H](CC(C)C)C(=O)N1CCC[C@H]1C(=O)N[C@@H](Cc1cnc[nH]1)C(=O)N[C@H](C(=O)N[C@@H](CCC(=O)O)C(=O)N[C@H](C(=O)NCC(=O)N[C@@H](CO)C(=O)NCC(=O)N[C@@H](CO)C(=O)N1CCC[C@H]1C(N)=O)[C@@H](C)O)[C@@H](C)O)[C@@H](C)O` [compound 73, [N-terminal(C20 diacid-gGlu), des1, 25H, 30S, 31G]mimylin] ({C20 diacid-γGlu}-ASELSTAALGRLSAELHELATLPHTETGSGSP-NH2), the Solubility result (pH 3.0) is “≧200 μM”; the Solubility entry (pH 4.0) is on record as “≧200 μM”; the Solubility entry (pH 5.0) is “≧200 μM”; the Solubility entry (pH 6.0) was “≧200 μM”; the Solubility result (pH 6.5) is recorded as “≧200 μM”; the Solubility result (pH 7.0) is recorded as “≧200 μM”. Further, the Solubility entry is, setting by setting: (pH 7.5) “≧200 μM”; (pH 8.0) “≧200 μM”.
As to `CC[C@H](C)[C@H](NC(=O)[C@H](CCC(=O)O)NC(=O)[C@H](C)NC(=O)[C@H](CO)NC(=O)[C@H](CC(C)C)NC(=O)[C@H](CCCNC(=N)N)NC(=O)CNC(=O)[C@H](CC(C)C)NC(=O)[C@H](C)NC(=O)[C@H](C)NC(=O)[C@@H](NC(=O)[C@H](CO)NC(=O)[C@H](CC(C)C)NC(=O)[C@H](CCC(=O)O)NC(=O)[C@H](CO)NC(=O)[C@H](C)NC(=O)[C@H](CCC(=O)O)NC(=O)CCCCCCCCCCCCCCCCC(=O)O)[C@@H](C)O)C(=O)N[C@@H](Cc1cnc[nH]1)C(=O)N[C@@H](CCC(=O)O)C(=O)N[C@@H](CC(C)C)C(=O)N[C@@H](C)C(=O)N[C@H](C(=O)N[C@@H](CC(C)C)C(=O)N1CCC[C@H]1C(=O)N[C@@H](CCCNC(=N)N)C(=O)N[C@H](C(=O)N[C@@H](CCC(=O)O)C(=O)N[C@H](C(=O)NCC(=O)N1CCC[C@H]1C(=O)N[C@@H](CCC(=O)O)C(=O)N[C@@H](CO)C(=O)N1CCC[C@H]1C(N)=O)[C@@H](C)O)[C@@H](C)O)[C@@H](C)O` [compound 11, [N-terminal(C18 diacid), 17I]mimylin] ({C18 diacid}-EASELSTAALGRLSAEIHELATLPRTETGPESP-NH2), the Solubility entry was “≧200 μM” (pH 3.0); “≧200 μM” (pH 4.0); “≧200 μM” (pH 5.0); “≧200 μM” (pH 6.0); “≧200 μM” (pH 6.5); “≧200 μM” (pH 7.0). The Solubility entry (pH 7.5) was “≧200 μM” and the Solubility result (pH 8.0) was “≧200 μM”.
For `CC(C)C[C@H](NC(=O)[C@H](C)NC(=O)[C@@H](NC(=O)[C@H](CO)NC(=O)[C@H](CC(C)C)NC(=O)[C@H](CCC(=O)O)NC(=O)[C@H](CO)NC(=O)[C@H](C)NC(=O)[C@H](CCC(=O)O)NC(=O)CCCCCCCCCCCCCCCCC(=O)O)[C@@H](C)O)C(=O)N[C@@H](C)C(=O)NCC(=O)N[C@@H](CCCNC(=N)N)C(=O)N[C@@H](CC(C)C)C(=O)N[C@@H](CO)C(=O)N[C@@H](C)C(=O)N[C@@H](CCC(=O)O)C(=O)N[C@@H](CC(C)C)C(=O)N[C@@H](Cc1cnc[nH]1)C(=O)N[C@@H](CCC(=O)O)C(=O)N[C@@H](CC(C)C)C(=O)N[C@@H](C)C(=O)N[C@H](C(=O)N[C@@H](CC(C)C)C(=O)N1CCC[C@H]1C(=O)N[C@@H](CCCNC(=N)N)C(=O)N[C@H](C(=O)N[C@@H](CCC(=O)O)C(=O)N[C@H](C(=O)NCC(=O)N1CCC[C@H]1C(=O)N[C@@H](CCC(=O)O)C(=O)N[C@@H](CO)C(=O)N1CCC[C@H]1C(N)=O)[C@@H](C)O)[C@@H](C)O)[C@@H](C)O` [compound 27, [N-terminal(C18 diacid), 9L, 10A]mimylin] ({C18 diacid}-EASELSTALAGRLSAELHELATLPRTETGPESP-NH2), the Solubility result is, setting by setting: (pH 3.0) “≧200 μM”; (pH 4.0) “≧200 μM”; (pH 5.0) “≧200 μM”; (pH 6.0) “≧200 μM”; (pH 6.5) “≧200 μM”; (pH 7.0) “≧200 μM”. In addition, the Solubility entry reads like this: (pH 7.5) “≧200 μM”; (pH 8.0) “≧200 μM”.

The solubility is how much of the substance goes into solution per volume. A high value points to much dissolved substance.
